# Source: patent US20210254056A1, “IDENTIFICATION AND TARGETED MODULATION OF GENE SIGNALING NETWORKS” (CAMP4 THERAPEUTICS CORPORATION, priority 2017, published 2021)
# Structures can show the parent of a compound that is named as a salt. Where two headings read alike, the source gives them in different places.
# Tested on: hepatocytes
# Test: RNA-seq of hepatocytes treated with Phase III failure compounds
# Details: for significant changes in gene expression: RNA-seq of Table 36, FPKM≥0.5, log 2(fold-change)≥1, q-value≤0.05; for significant modulation of expression of any of the genes analyzed: p≤0.05; for significant modulation of expression of disease genes: q≤0.05, genes in the value or listed in the block
# Procedure: RNA-seq was performed to determine the effects of the compounds on hepatocytes.
# Significance was determined by the criteria of FPKM≥0.5, a log 2(fold-change)≥1, and a […].
compound,measurement,setting,value
Cl.OC[C@H]1NC[C@H](O)[C@@H](O)[C@H]1O [Deoxygalactonojirimycin hydrochloride],significant changes in gene expression,,not observed to cause any significant changes in gene expression
same,significant modulation of expression of any of the genes analyzed,"RNA-seq, hepatocytes",not observed to significantly modulate expression
"O=C(N[C@H]1CN2CCC1CC2)c1cc2cccc(Cl)c2s1 [EVP-6124 (hydrochloride) (encenicline), encenicline]",Number (#) of genes having significantly changed expression,"RNA-seq, Phase III failure compounds, hepatocytes, significance: FPKM≥0.5, log 2(fold-change)≥1, q-value≥0.05 (so in the source)",141
same,significant modulation of expression of disease genes,"RNA-seq, hepatocytes",significantly (q≤0.05) modulate expression
same,"B2M expression, RNA-seq result","gene B2M, hepatocytes",0.16
same,"B9D2 expression, RNA-seq result","gene B9D2, hepatocytes",−0.55
same,"BAAT expression, RNA-seq result","gene BAAT, hepatocytes",0.61
same,"BBOX1 expression, RNA-seq result","gene BBOX1, hepatocytes",−0.14
same,"BBS10 expression, RNA-seq result","gene BBS10, hepatocytes",−0.33
same,"BCHE expression, RNA-seq result","gene BCHE, hepatocytes",−0.41
same,"BCKDHB expression, RNA-seq result","gene BCKDHB, hepatocytes",−0.31
same,"BCKDK expression, RNA-seq result","gene BCKDK, hepatocytes",−0.23
same,"BCO1 expression, RNA-seq result","gene BCO1, hepatocytes",0.24
same,"BCR expression, RNA-seq result","gene BCR, hepatocytes",−0.06
same,"BLNK expression, RNA-seq result","gene BLNK, hepatocytes",0.39
same,"BLOC1S3 expression, RNA-seq result","gene BLOC1S3, hepatocytes",0.46
same,"BMPR1A expression, RNA-seq result","gene BMPR1A, hepatocytes",0.09
same,"BRAF expression, RNA-seq result","gene BRAF, hepatocytes",0.04
same,"BSCL2 expression, RNA-seq result","gene BSCL2, hepatocytes",−0.54
same,"BTD expression, RNA-seq result","gene BTD, hepatocytes",−0.08
same,"C4A expression, RNA-seq result","gene C4A, hepatocytes",0.24
same,"C9 expression, RNA-seq result","gene C9, hepatocytes",−0.11
same,"C10orf10 expression, RNA-seq result","gene C10orf10, hepatocytes",−0.31
same,"C10orf11 expression, RNA-seq result","gene C10orf11, hepatocytes",0.1
same,"C15orf41 expression, RNA-seq result","gene C15orf41, hepatocytes",−0.2
same,"CA2 expression, RNA-seq result","gene CA2, hepatocytes",0.6
same,"CA5A expression, RNA-seq result","gene CA5A, hepatocytes",0.1
same,"CA12 expression, RNA-seq result","gene CA12, hepatocytes",0.58
same,"CAV1 expression, RNA-seq result","gene CAV1, hepatocytes",−0.81
same,"CCND1 expression, RNA-seq result","gene CCND1, hepatocytes",−0.9
same,"CD46 expression, RNA-seq result","gene CD46, hepatocytes",0.24
same,"CD81 expression, RNA-seq result","gene CD81, hepatocytes",0.27
same,"CD320 expression, RNA-seq result","gene CD320, hepatocytes",−0.04
same,"CDAN1 expression, RNA-seq result","gene CDAN1, hepatocytes",−0.04
same,"CDH1 expression, RNA-seq result","gene CDH1, hepatocytes",−0.12
same,"CEP19 expression, RNA-seq result","gene CEP19, hepatocytes",−0.06
same,"CEP83 expression, RNA-seq result","gene CEP83, hepatocytes",−0.3
same,"CEP164 expression, RNA-seq result","gene CEP164, hepatocytes",−0.12
same,"CEP290 expression, RNA-seq result","gene CEP290, hepatocytes",−0.26
same,"CFB expression, RNA-seq result","gene CFB, hepatocytes",0.1
same,"CFHR2 expression, RNA-seq result","gene CFHR2, hepatocytes",−0.08
same,"CHRM3 expression, RNA-seq result","gene CHRM3, hepatocytes",0.28
same,"CIDEC expression, RNA-seq result","gene CIDEC, hepatocytes",−0.13
same,"CLDN1 expression, RNA-seq result","gene CLDN1, hepatocytes",−0.46
same,"COG1 expression, RNA-seq result","gene COG1, hepatocytes",−0.19
Cn1cc(C2=C(c3cn(C4CCN(Cc5ccccn5)CC4)c4ccccc34)C(=O)NC2=O)c2ccccc21 [Enzastaurin],"RNA-seq results, CYP2B6 expression",,0.42
same,"RNA-seq results, CYP2C19 expression",,0.47
same,"RNA-seq results, CYP2D6 expression",,−0.28
same,"RNA-seq results, CYP3A4 expression",,0.22
same,"RNA-seq results, CYP7B1 expression",,0.06
same,"RNA-seq results, CYP39A1 expression",,−1.39
same,RNA-seq results: CYP2B6 expression,,0.34
same,RNA-seq results: CYP2C19 expression,,1.62
same,RNA-seq results: CYP2D6 expression,,−0.62
same,RNA-seq results: CYP3A4 expression,,0.01
same,RNA-seq results: CYP7B1 expression,,0.26
same,RNA-seq results: CYP39A1 expression,,−0.08
same,significant modulation of expression of disease genes,"RNA-seq, hepatocytes",significantly (q≤0.05) modulate expression
same,effect on disease gene expression,"RNA-seq, hepatocytes",effect on expression of too many disease genes
same,RNA-seq results: A1BG expression,"gene A1BG, hepatocytes",0.13
same,RNA-seq results: AGTR1 expression,"gene AGTR1, hepatocytes",−0.76
same,RNA-seq results: AGXT expression,"gene AGXT, hepatocytes",−0.27
same,RNA-seq results: AHI1 expression,"gene AHI1, hepatocytes",0.25
same,RNA-seq results: AMPD3 expression,"gene AMPD3, hepatocytes",−0.35
same,RNA-seq results: AMT expression,"gene AMT, hepatocytes",−0.42
same,RNA-seq results: ANGPTL3 expression,"gene ANGPTL3, hepatocytes",−2.31
same,RNA-seq results: ANKS4B expression,"gene ANKS4B, hepatocytes",−0.71
same,RNA-seq results: ANKS6 expression,"gene ANKS6, hepatocytes",0.10
same,RNA-seq results: ANPEP expression,"gene ANPEP, hepatocytes",−0.52
same,RNA-seq results: AOC2 expression,"gene AOC2, hepatocytes",0.11
same,RNA-seq results: APOA2 expression,"gene APOA2, hepatocytes",−0.48
same,RNA-seq results: APOA5 expression,"gene APOA5, hepatocytes",−0.04
same,RNA-seq results: APOB expression,"gene APOB, hepatocytes",−0.19
same,RNA-seq results: COG5 expression,"gene COG5, hepatocytes",0.35
same,RNA-seq results: COG6 expression,"gene COG6, hepatocytes",0.23
same,RNA-seq results: COL1A1 expression,"gene COL1A1, hepatocytes",0.34
same,RNA-seq results: COX6A1 expression,"gene COX6A1, hepatocytes",−1.30
same,RNA-seq results: CP expression,"gene CP, hepatocytes",0.80
same,RNA-seq results: CPS1 expression,"gene CPS1, hepatocytes",0.69
same,RNA-seq results: CPT1A expression,"gene CPT1A, hepatocytes",−0.10
same,RNA-seq results: CPT2 expression,"gene CPT2, hepatocytes",−0.15
same,RNA-seq results: CROT expression,"gene CROT, hepatocytes",−0.21
same,RNA-seq results: CSPP1 expression,"gene CSPP1, hepatocytes",−0.22
same,RNA-seq results: CTC1 expression,"gene CTC1, hepatocytes",0.46
same,RNA-seq results: CTDSP2 expression,"gene CTDSP2, hepatocytes",0.44
same,RNA-seq results: CTH expression,"gene CTH, hepatocytes",−0.17
same,RNA-seq results: CTNS expression,"gene CTNS, hepatocytes",0.16
same,RNA-seq results: CTSF expression,"gene CTSF, hepatocytes",−0.63
same,RNA-seq results: CTSK expression,"gene CTSK, hepatocytes",0.47
same,RNA-seq results: CYB5A expression,"gene CYB5A, hepatocytes",−0.56
same,RNA-seq results: CYB5R3 expression,"gene CYB5R3, hepatocytes",0.02
same,RNA-seq results: CYP27A1 expression,"gene CYP27A1, hepatocytes",−0.43
same,RNA-seq results: DAO expression,"gene DAO, hepatocytes",−0.01
same,RNA-seq results: DBT expression,"gene DBT, hepatocytes",0.28
same,RNA-seq results: DCDC2 expression,"gene DCDC2, hepatocytes",0.20
same,RNA-seq results: DCXR expression,"gene DCXR, hepatocytes",−1.16
same,RNA-seq results: FABP1 expression,"gene FABP1, hepatocytes",−0.93
same,RNA-seq results: FADD expression,"gene FADD, hepatocytes",−0.53
same,RNA-seq results: FAM111A expression,"gene FAM111A, hepatocytes",0.49
same,RNA-seq results: FAM111B expression,"gene FAM111B, hepatocytes",0.47
same,RNA-seq results: FAN1 expression,"gene FAN1, hepatocytes",0.43
same,RNA-seq results: FARS2 expression,"gene FARS2, hepatocytes",−0.55
same,RNA-seq results: FASLG expression,"gene FASLG, hepatocytes",0.35
same,RNA-seq results: FGA expression,"gene FGA, hepatocytes",−0.10
same,RNA-seq results: FGD1 expression,"gene FGD1, hepatocytes",0.29
same,RNA-seq results: FGFR2 expression,"gene FGFR2, hepatocytes",0.75
same,RNA-seq results: FIG4 expression,"gene FIG4, hepatocytes",0.08
same,RNA-seq results: FIS1 expression,"gene FIS1, hepatocytes",−1.07
same,RNA-seq results: FTCD expression,"gene FTCD, hepatocytes",−0.35
same,RNA-seq results: FTH1 expression,"gene FTH1, hepatocytes",−0.84
same,RNA-seq results: FUCA1 expression,"gene FUCA1, hepatocytes",−0.37
same,RNA-seq results: FXN expression,"gene FXN, hepatocytes",−0.10
same,RNA-seq results: G6PC3 expression,"gene G6PC3, hepatocytes",−0.60
same,RNA-seq results: G6PC expression,"gene G6PC, hepatocytes",0.69
same,RNA-seq results: G6PD expression,"gene G6PD, hepatocytes",−0.23
same,RNA-seq results: GALK1 expression,"gene GALK1, hepatocytes",−0.94
same,RNA-seq results: GALK2 expression,"gene GALK2, hepatocytes",−0.51
same,RNA-seq results: GATA6 expression,"gene GATA6, hepatocytes",−0.26
same,RNA-seq results: GATM expression,"gene GATM, hepatocytes",0.12
same,RNA-seq results: GBA expression,"gene GBA, hepatocytes",0.04
same,RNA-seq results: GBE1 expression,"gene GBE1, hepatocytes",−0.07
same,RNA-seq results: GCH1 expression,"gene GCH1, hepatocytes",−0.12
same,RNA-seq results: GCKR expression,"gene GCKR, hepatocytes",0.17
same,RNA-seq results: GCLC expression,"gene GCLC, hepatocytes",0.11
same,RNA-seq results: GGCX expression,"gene GGCX, hepatocytes",0.17
same,RNA-seq results: GHR expression,"gene GHR, hepatocytes",0.73
same,RNA-seq results: GJB2 expression,"gene GJB2, hepatocytes",−0.07
same,RNA-seq results: GOSH expression,"gene GOSH, hepatocytes",−1.35
same,RNA-seq results: RRM2B,"gene RRM2B, hepatocytes",−0.08
same,RNA-seq results: RSAD1,"gene RSAD1, hepatocytes",0.26
same,RNA-seq results: SAMHD1,"gene SAMHD1, hepatocytes",−0.34
same,RNA-seq results: SC5D,"gene SC5D, hepatocytes",0.23
same,RNA-seq results: SCARB1,"gene SCARB1, hepatocytes",−0.02
same,RNA-seq results: SCN9A,"gene SCN9A, hepatocytes",−1.60
same,RNA-seq results: SDCCAG8,"gene SDCCAG8, hepatocytes",0.08
same,RNA-seq results: SEPN1,"gene SEPN1, hepatocytes",−0.51
same,RNA-seq results: SERAC1,"gene SERAC1, hepatocytes",−0.28
same,RNA-seq results: SERPINA1,"gene SERPINA1, hepatocytes",0.21
same,RNA-seq results: SERPING1,"gene SERPING1, hepatocytes",0.06
same,RNA-seq results: SERPINI1,"gene SERPINI1, hepatocytes",−0.50
same,RNA-seq results: SETBP1,"gene SETBP1, hepatocytes",0.08
same,RNA-seq results: SFXN4,"gene SFXN4, hepatocytes",0.11
same,RNA-seq results: SLC10A1,"gene SLC10A1, hepatocytes",−0.60
same,RNA-seq results: SLC10A3,"gene SLC10A3, hepatocytes",0.28
same,RNA-seq results: SLC10A5,"gene SLC10A5, hepatocytes",−0.77
same,RNA-seq results: SLC10A7,"gene SLC10A7, hepatocytes",−0.46
same,RNA-seq results: SLC11A2,"gene SLC11A2, hepatocytes",0.16
same,RNA-seq results: SLC19A2,"gene SLC19A2, hepatocytes",0.28
same,RNA-seq results: SLC19A3,"gene SLC19A3, hepatocytes",−0.67
same,RNA-seq results: SLC22A1,"gene SLC22A1, hepatocytes",−0.34
same,RNA-seq results: SLC22A5,"gene SLC22A5, hepatocytes",0.26
same,RNA-seq results: SLC25A1,"gene SLC25A1, hepatocytes",−0.20
same,RNA-seq results: SLC25A10,"gene SLC25A10, hepatocytes",−0.01
same,RNA-seq results: SLC25A12,"gene SLC25A12, hepatocytes",0.10
same,RNA-seq results: SLC25A13,"gene SLC25A13, hepatocytes",0.11
same,RNA-seq results: SLC25A15,"gene SLC25A15, hepatocytes",−0.31
same,RNA-seq results: SLC25A19,"gene SLC25A19, hepatocytes",−0.01
same,RNA-seq results: SLC25A20,"gene SLC25A20, hepatocytes",−0.96
same,RNA-seq results: SLC25A32,"gene SLC25A32, hepatocytes",0.18
Cn1cc(C2=C(c3cn(C4CCN(Cc5ccccn5)CC4)c4ccccc34)C(=O)NC2=O)c2ccccc21 [Enzstaurin],Number (#) of genes having significantly changed expression,,971
Cc1cc(C)c2c(c1)[C@@H](N(Cc1cc(C(F)(F)F)cc(C(F)(F)F)c1)c1nnn(C)n1)CCCN2C[C@H]1CC[C@H](C(=O)O)CC1 [Evacetrapib],significant changes in gene expression,,not observed to cause any significant changes in gene expression
same,significant modulation of expression of any of the genes analyzed,"RNA-seq, hepatocytes",not observed to significantly modulate expression
